molecular target: T1, histamine-3 receptor (Rattus norvegicus, UniProt Q9QYN8); assay: Histamine-3 receptor binding, (3H)-N-α-methylhistamine displacement in rat cortical membranes; conditions: male Sprague-Dawley rat brain cortical membranes; (3H)-N-α-methylhistamine ~0.6 nM; 30 minutes at 25° C.; Cheng-Prusoff
T1 construct: from tissue; host or cells: male Sprague-Dawley rat brain cortex membranes
Method: Briefly, male Sprague-Dawley rat brain cortices were homogenized (1 g tissue/10 mL buffer) in 50 mM Tris-HCl/5 mM EDTA containing protease inhibitor cocktail (Calbiochem) using a polytron set at 20,500 rpm. Homogenates were centrifuged for 20 minutes at 40,000×g. The supernatant was decanted, and pellets were weighed. The pellet was resuspended by polytron homogenization in 40 mL 50 mM Tris-HCl/5 mM EDTA with protease inhibitors and centrifuged for 20 minutes at 40,000×g. […] Test compounds were dissolved in DMSO to provide 20 mM solution, serially diluted and then added to the incubation mixtures prior to initiating the incubation assay by addition of the membranes. Thioperamide (3 μM) was used to determine nonspecific binding. Binding incubations were conducted for 30 minutes at 25° C. and terminated by addition of 2 mL of ice cold 50 mM Tris-HCl (pH 7.7) and filtration through 0.3% polyethylenimine-soaked Unifilter plates (Packard). These filters were washed 4 additional times with 2 mL of ice-cold 50 mM Tris-HCl and dried for 1 hour. Radioactivity was determined using liquid scintillation counting techniques. Results were analyzed by Hill transformation and Ki values were determined using the Cheng-Prusoff equation.

T1 sequence (Q9QYN8 whole entry): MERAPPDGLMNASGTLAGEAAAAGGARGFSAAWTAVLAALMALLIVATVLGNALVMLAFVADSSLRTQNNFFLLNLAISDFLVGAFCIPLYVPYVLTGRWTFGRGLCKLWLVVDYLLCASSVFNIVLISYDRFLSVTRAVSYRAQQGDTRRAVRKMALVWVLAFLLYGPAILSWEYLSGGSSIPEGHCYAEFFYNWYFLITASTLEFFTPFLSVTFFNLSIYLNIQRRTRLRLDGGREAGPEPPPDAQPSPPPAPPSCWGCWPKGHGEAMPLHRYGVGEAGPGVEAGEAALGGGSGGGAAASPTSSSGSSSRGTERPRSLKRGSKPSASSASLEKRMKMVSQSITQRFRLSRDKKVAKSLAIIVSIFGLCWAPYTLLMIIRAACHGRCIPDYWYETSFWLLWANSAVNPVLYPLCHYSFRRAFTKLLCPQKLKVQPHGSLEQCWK

| Ki [nM] | Molecule |
| --- | --- |
| 9.3 | N#Cc1ccc(-c2ccc(OCCCN3CC[C@@H](NS(=O)(=O)c4ccc(F)cc4F)C3)cc2)cc1 [Example 51] |
| 5 | O=C(c1ccc(OCCCN2CC[C@@H](NS(=O)(=O)c3ccc(F)c(Cl)c3)C2)cc1)C1CC1 [Example 65, 3-chloro-N-((3R)-1-{3-[4-(cyclopropylcarbonyl)phenoxy]propyl}pyrrolidinyl)-4-fluorobenzenesulfonamide] |
| 74 | Cc1cc(-c2ccc(C#N)cc2)ccc1OCCCN1CC[C@@H](N(C)C)C1 [Example 168, 4′-{3-[(3R)-3-(dimethylamino)-1-pyrrolidinyl]propoxy}-3′-methyl-1,1′-biphenyl-4-carbonitrile] |
| 68 | CC(=O)c1ccc(OCCCN2CC[C@@H](NC(=O)CSc3nccc(C)n3)C2)cc1 [Example 2, N-{(3R)-1-[3-(4-acetylphenoxy)propyl]pyrrolidinyl}-2-[(4-methyl-2-pyrimidinyl)sulfanyl]acetamide] |
| 7.9 | CC(=O)c1ccc(OCCCN2CC[C@@H](NS(=O)(=O)c3ccc(Oc4ncc(C(F)(F)F)cc4Cl)cc3)C2)cc1 [Example 79, N-{(3R)-1-[3-(4-acetylphenoxy)propyl]pyrrolidinyl}-4-{[3-chloro-5-(trifluoromethyl)-2-pyridinyl]oxy}benzenesulfonamide] |
| 2.8 | N#Cc1cccc(S(=O)(=O)N[C@@H]2CCN(CCCOc3ccc(C(=O)C4CC4)cc3)C2)c1 [Example 71, 3-cyano-N-((3R)-1-{3-[4-(cyclopropylcarbonyl)phenoxy]propyl}pyrrolidinyl)benzenesulfonamide] |
| 9.5 | O=C(c1ccc(OCCCN2CC[C@@H](NS(=O)(=O)c3cccc4cccnc34)C2)cc1)C1CC1 [Example 84, N-((3R)-1-{3-[4-(cyclopropylcarbonyl)phenoxy]propyl}pyrrolidinyl)-8-quinolinesulfonamide] |
| 57 | COC(=O)N[C@@H]1CCN(CCCOc2ccc(-c3ccc(C#N)cc3)cc2)C1 [Example 133, methyl (3R)-1-{3-[(4′-cyano[1,1′-biphenyl]-4-yl)oxy]propyl}pyrrolidinylcarbamate] |
| 23 | O=C(c1ccc(OCCCN2CC[C@@H](NS(=O)(=O)c3cc(C(F)(F)F)cc(C(F)(F)F)c3)C2)cc1)C1CC1 [Example 83, N-((3R)-1-{3-[4-(cyclopropylcarbonyl)phenoxy]propyl}pyrrolidinyl)-3,5-bis(trifluoromethyl)benzenesulfonamide] |
| 1.2 | CC(=O)Nc1ccc(S(=O)(=O)N[C@@H]2CCN(CCCOc3ccc(C(=O)C4CC4)cc3)C2)cc1Cl [Example 96, N-(2-chloro-4-{[((3R)-1-{3-[4-(cyclopropylcarbonyl)phenoxy]propyl}pyrrolidinyl)amino]sulfonyl}phenyl)acetamide] |
| 5 | O=C(c1ccc(OCCCN2CC[C@@H](NS(=O)(=O)c3cccs3)C2)cc1)C1CC1 [Example 81, N-((3R)-1-{3-[4-(cyclopropylcarbonyl)phenoxy]propyl}pyrrolidinyl)-2-thiophenesulfonamide] |
| 725 | Cn1cnc(S(=O)(=O)N[C@@H]2CCN(CCCOc3ccc(-c4ccccn4)cc3)C2)c1 [Example 105, 1-methyl-N-((3R)-1-{3-[4-(2-pyridinyl)phenoxy]propyl}pyrrolidinyl)-1 H-imidazole-4-sulfonamide] |
| 16 | CN(C(=O)c1cccnc1)[C@@H]1CCN(CCCOc2ccc(-c3ccc(C#N)cc3)cc2)C1 [Example 121] |
| 60 | N#Cc1ccc(-c2ccc(OCCCN3CC[C@@H](NS(=O)(=O)c4ccc(C(F)(F)F)cc4)C3)cc2)cc1 [Example 48] |
| 31 | CC(=O)N[C@@H]1CCN(CCCOc2ccc(-c3ccc(C#N)cc3)cc2)C1 [Example 130] |
| 41 | CN(C)[C@@H]1CCN(CCCOc2ccc(-c3ccc(C#N)cc3)cc2Cl)C1 [Example 171, 3′-chloro-4′-{3-[(3R)-3-(dimethylamino)-1-pyrrolidinyl]propoxy}-1,1′-biphenyl-4-carbonitrile] |
| 10 | N#Cc1ccc(-c2ccc(OCCCN3CC[C@@H](NS(=O)(=O)c4ccccc4Cl)C3)cc2)cc1 [Example 30, 2-chloro-N-((3R)-1-{3-[(4′-cyano[1,1′-biphenyl]-4-yl)oxy]propyl}pyrrolidinyl)benzenesulfonamide] |

| Ki [nM] | Molecule |
| --- | --- |
| 4.9 | CC(=O)Nc1ccc(S(=O)(=O)N[C@@H]2CCN(CCCOc3ccc(C(C)=O)cc3)C2)cc1Cl [Example 76, N-{4-[({(3R)-1-[3-(4-acetylphenoxy)propyl]pyrrolidinyl}amino)sulfonyl]-2-chlorophenyl}acetamide] |
| 3.2 | O=C(c1ccc(OCCCN2CC[C@@H](NS(=O)(=O)c3cccc(F)c3)C2)cc1)C1CC1 [Example 93, N-((3R)-1-{3-[4-(cyclopropylcarbonyl)phenoxy]propyl}pyrrolidinyl)-3-fluorobenzenesulfonamide] |
| 2.9 | O=C(c1ccc(OCCCN2CC[C@@H](NS(=O)(=O)c3ccccc3)C2)cc1)C1CC1 [Example 55, N-((3R)-1-{3-[4-(cyclopropylcarbonyl)phenoxy]propyl}pyrrolidinyl)benzenesulfonamide] |
| 74 | C=CCOC(=O)N[C@@H]1CCN(CCCOc2ccc(-c3ccc(C#N)cc3)cc2)C1 [Example 132, allyl (3R)-1-{3-[(4′-cyano[1,1′-biphenyl]-4-yl)oxy]propyl}pyrrolidinylcarbamate] |
| 60 | N#Cc1ccc(-c2ccc(OCCCN3CC[C@@H](NS(=O)(=O)c4ccc(OC(F)(F)F)cc4)C3)cc2)cc1 [Example 50] |
| 51 | Cc1cc(OCCCN2CC[C@@H](N(C)C)C2)ccc1-c1ccc(C#N)cc1 [Example 170, 4′-{3-[(3R)-3-(dimethylamino)-1-pyrrolidinyl]propoxy}-2′-methyl-1,1′-biphenyl-4-carbonitrile] |
| 132 | CN(C)C(=O)N[C@@H]1CCN(CCCOc2ccc(-c3ccc(C#N)cc3)cc2)C1 [Example 135] |
| 45 | CN(C(=O)NC(C)(C)C)[C@@H]1CCN(CCCOc2ccc(-c3ccc(C#N)cc3)cc2)C1 [Example 117, N′-tert-butyl-N-((3R)-1-{3-[(4′-cyano[1,1′-biphenyl]-4-yl)oxy]propyl}pyrrolidinyl)-N-methylurea] |
| 220 | N#Cc1ccc(C(=O)N[C@@H]2CCN(CCCOc3ccc(-c4ccc(C#N)cc4)cc3)C2)cc1 [Example 140, 4-cyano-N-((3R)-1-{3-[(4′-cyano[1,1′-biphenyl]-4-yl)oxy]propyl}pyrrolidinyl)benzamide] |
| 4.6 | CN([C@@H]1CCN(CCCOc2ccc(-c3ccc(C#N)cc3)cc2)C1)S(=O)(=O)c1ccc(C#N)cc1 [Example 126, 4-cyano-N-((3R)-1-{3-[(4′-cyano[1,1′-biphenyl]-4-yl)oxy]propyl}pyrrolidinyl)-N-methylbenzenesulfonamide] |
| 626 | CC(=O)c1ccc(OCCCN2CC[C@@H](N3C(=O)N[C@H](C(C)C)C3=O)C2)cc1 [Example 10, (5R)-3-{(3R)-1-[3-(4-acetylphenoxy)propyl]pyrrolidinyl}-5-isopropyl-2,4-imidazolidinedione] |
| 7.6 | CC(=O)Nc1nc(C)c(S(=O)(=O)N[C@@H]2CCN(CCCOc3ccc(-c4ccc(C#N)cc4)cc3)C2)s1 [Example 39, N-(5-{[((3R)-1-{3-[(4′-cyano[1,1′-biphenyl]-4-yl)oxy]propyl}pyrrolidinyl)amino]sulfonyl}-4-methyl-1,3-thiazol-2-yl)acetamide] |
| 4 | N#Cc1ccc(S(=O)(=O)N[C@@H]2CCN(CCCOc3ccc(C(=O)C4CC4)cc3)C2)cc1 [Example 11, 4-cyano-N-((3R)-1-{3-[4-(cyclopropylcarbonyl)phenoxy]propyl}pyrrolidinyl)benzenesulfonamide] |
| 5.2 | CC(C)(C)c1ccc(S(=O)(=O)N[C@@H]2CCN(CCCOc3ccc(C(=O)C4CC4)cc3)C2)cc1 [Example 60, 4-tert-butyl-N-((3R)-1-{3-[4-(cyclopropylcarbonyl)phenoxy]propyl}pyrrolidinyl)benzenesulfonamide] |
| 51 | CC(C)(C)CC(=O)N[C@@H]1CCN(CCCOc2ccc(-c3ccc(C#N)cc3)cc2)C1 [Example 131] |
| 12 | Cc1cccc(S(=O)(=O)N[C@@H]2CCN(CCCOc3ccc(-c4ccc(C#N)cc4)cc3)C2)c1 [Example 47] |
| 98 | N#Cc1ccc(-c2ccc(OCCCN3CC[C@@H](NS(=O)(=O)c4ccc(Cl)c(Cl)c4)C3)cc2)cc1 [Example 54, 3,4-dichloro-N-((3R)-1-{3-[(4′-cyano[1,1′-biphenyl]-4-yl)oxy]propyl}pyrrolidinyl)benzenesulfonamide] |

| Molecule | Ki [nM] |
| --- | --- |
| N#Cc1ccc(-c2ccc(OCCCN3CC[C@@H](NS(=O)(=O)c4cccc5cccnc45)C3)cc2)cc1 [Example 40] | 51 |
| CCCCOc1ccc(S(=O)(=O)N[C@@H]2CCN(CCCOc3ccc(-c4ccc(C#N)cc4)cc3)C2)cc1 [Example 41, 4-butoxy-N-((3R)-1-{3-[(4′-cyano[1,1′-biphenyl]-4-yl)oxy]propyl}pyrrolidinyl)benzenesulfonamide] | 48 |
| CCCCOc1ccc(S(=O)(=O)N[C@@H]2CCN(CCCOc3ccc(C(=O)C4CC4)cc3)C2)cc1 [Example 85, 4-butoxy-N-((3R)-1-{3-[4-(cyclopropylcarbonyl)phenoxy]propyl}pyrrolidinyl)benzenesulfonamide] | 5.3 |
| N-{(3R)-1-[3-(4-acetylphenoxy)propyl]pyrrolidinyl}-4-(trifluoromethoxy)benzenesulfonamide [Example 73] | 6.4 |
